One data set can be described thus: physchem. The following applies: thermodynamic from solid; for solubility: 23 °C; for solubility at 1 h: 40 °C, Solubility at 40° C.
Another data set in a line: in vitro. Particulars: 50 mg, Tmax (time interval where BAmax is recorded). The procedure:
Test System: The study was performed in the TNO dynamic, multi-compartmental in vitro system of the stomach and small intestine (tiny-TIM). The tiny-TIM system consists of a gastric compartment and one small intestinal compartment (FIG. 8). This compartment is composed of two glass units with a flexible silicone inner wall enclosing the luminal material. The space between the inner and outer walls is filled with water. Peristaltic mixing of the chyme is the result of alternate compression and relaxation of the flexible inner wall. The compartments are connected by peristaltic valve pumps that successively open and close, allowing the chyme to transit over time through the compartments. […] The set-points for gastrointestinal simulation are controlled and monitored by specific computer programs. […]
Filtration of released and dissolved/solubilized drug molecules from the intestinal lumen via a semi-permeable membrane unit (Fresenius plasmaFlux® P1dry) allowed the assessment of the so-called bio-accessible fraction, i.e. the fraction of the drug which is available for small intestinal absorption. […] The collected volume per time period was measured and sub-samples were taken, instantly diluted in 50% Acetonitrile in Milli-q water and stored at 2-10° C., protected from light, until analysis.

The next data set relates to phospho-JNK. Description: Phosphoprotein analysis in PMA-differentiated U937 cells: phospho-JNK/total JNK. The format is cell-based. Particulars: Homo sapiens, U-937, read-out: pJNK/Total JNK EC50. The method, then: (§1) The JNK pathway leads to increased inflammation by boosting production of inflammatory cytokines. […] Classical p38 inhibitors block the phosphorylation of downstream substrates of p38 while elevating activity of parallel pathways such as JNK. Evaluation of the impact of different classes of p38 inhibitors on p38 and JNK pathway regulation was carried out using phospho-HSP27 and phosphor-JNK for the two pathways, respectively. Evaluation of the potency and efficacy of p38 inhibitors to impact phosphoprotein levels was carried out using the human U937 cell line. The U937 human pre-monocytic cell line was obtained from the American Type Culture Collection (Rockville, MD). These cells were differentiated to a monocytic/macrophage phenotype as described by Burnette (Burnette et al, (2009). SD0006: a potent, selective and orally available inhibitor of p38 MAP Kinase, Pharmacology 84(1):42-60). Suspension cells (approximately 0.5 million per milliliter in T75 cm^2 tissue culture flasks) were grown in RPMI containing 10% fetal bovine serum (FBS) plus antibiotics. On day one, phorbol 12-myristate 13-acetate (PMA, 20 ng/mL) was added to the culture flask and the cells were incubated overnight at 37° C./5% CO2. The cells were washed on day two by centrifuging and resuspending them in fresh media without PMA. […]

The next data set has as its system phospho-HSP27. In words: Phosphoprotein analysis in PMA-differentiated U937 cells: phospho-Hsp27/total Hsp27. It is filed as cell-based. The following applies: Homo sapiens, U-937, read-out: pHSP27/Total HSP27 IC50. The procedure: as §1

Regarding `Cc1cnc(-c2ccnc(C(C)(C)O)n2)cc1-n1c(C)cc(OCc2ncc(F)cc2F)c(Cl)c1=O` (atropisomer, axis not shown; (P)) [Compound 49a, (P)-3-chloro-4-((3,5-difluoropyridin-2-yl)methoxy)-2′-(2-(2-hydroxypropan-2-yl)pyrimidin-4-yl)-5′,6-dimethyl-2H-[1,4′-bipyridin]-2-one], the solubility in “physchem” (organic solvent or mixture, low solubility at RT) is less than 10000 µg/mL; in the data set “physchem” (water, Solubility at RT), less than 6000 µg/mL. Also, the solubility at 1 h in the data set “physchem” (organic solvent or mixture) was more than 9000 µg/mL; in the data set “physchem” (water), less than 6000 µg/mL. In the data set “in vitro”, the Tmax is 1 to 1.5 h. Moreover, the EC50 in the data set on phospho-JNK worked out at 117 nM. Also, the IC50 with phospho-HSP27 is 1.15 nM.

The record behind these values is patent US12616696B2, “Crystalline forms of (p)-3-chloro-4-((3,5-difluoropyridin-2-yl)methoxy)-2′-(2-(2-hydroxypropan-2-yl)pyrimidin-4-yl)-5′,6-dimethyl-2h-[1,4′-bipyridin]-2-one” (ACLARIS THERAPEUTICS, INC., priority 2020, dated 2026).
